These are literature values, as cited in patent US20160355464A1, “FUMARATE COMPOUNDS, PHARMACEUTICAL COMPOSITIONS THEREOF, AND METHODS OF USE” (priority 2015, published 2016).

As to `COC(=O)/C=C/C(=O)OC` [DMF, dimethylfumarate], the aqueous solubility entry is “poor aqueous solubility”.
